From patent publication US8551997B2, “Structural-based inhibitors of the glutathione binding site in aldose reductase, methods of screening therefor and methods of use” (The Board of Regents of the University of Texas System, priority 2004, dated 2013) come the findings set out here.

Test [1] has as its system C57BL/6 mice. The experiment in a line: LPS-induced cardiac dysfunction, M-mode echocardiography. The class given is in vivo, mouse.
The test system of another test is HT29-GFP cells. The experiment in a line: HT29-GFP liver metastasis in nude mice. The class given is in vivo, mouse. As to conditions: sorbinil 40 mg/kg body weight in the diet, 34 days. How it is done:
For in vivo metastasis studies, 4- to 6-weeks-old male nude^nu/nu mice were obtained from Harlan Sprague Dawley (Indianapolis, Ind.) and housed in clean, pathogen-free rooms in an environment with controlled temperature (22° C.), humidity and a 12 hours light/dark cycle. The mice were fed standard chow (Formula Chow 5008; Purina Mills, St. Louis, Mo.), given tap water ad libitum and were allowed to acclimate for 1 week. Metastatic HT29-GFP cells were injected intrasplenically by known methods.
Briefly, mice were anesthetized with halothane, a small left abdominal flank incision was created and the spleen was exteriorized. HT29-GFP cells were harvested using only trypsin and were resuspended as a single-cell suspension in Hanks Balanced Salt Solution, free of Mg^2+ and Ca^2+. HT29-GFP cells (5×10^6 cells/400 μl) were injected into the spleen with a 27-gauge needle. The spleen was returned to the abdomen and the wound was closed in one layer with wound clips. After 24 hrs spleen was removed and animals were randomized into metastatic control and AR inhibitor, sorbinil group. Control group was fed with normal diet and AR inhibitor group fed with sorbinil (40 mg/kg body weight) in the diet. Mice were killed after 35 days, and metastasis in the liver was evaluated by using the Illumatool TLS (Lightools Research, Encinitas, Calif.). […]

The subject of the next test is HT29 cells. The experiment in a line: HT29 cell proliferation, MTT assay. The note with it: inhibitor alone. The class given is cell-based. How it is done: HT29 cells were grown to confluence in McCoy's medium and harvested and plated 2,500 per well in a 96-well plate. Subconfluent cells were growth arrested in 0.1% FBS with or without AR inhibitor sorbinil or zopolrestat (20 μM). After 24 hours, EGF (5 ng/ml) or BFGF (10 ng/ml) was added to the medium and the cells were incubated for another 24 hours. Cells incubated with the AR inhibitors alone served as control. Cell viability was determined by an MTT assay.

Test [2] has as its system Caco-2 cells. The experiment in a line: Membrane-bound PKC activity in Caco-2 cells. The class given is cell-based, human. How it is done: PKC activity was measured using the Promega-Sigma TECT PKC assay system as described earlier (15). Briefly, aliquots of the reaction mixture (25 mM Tris-Hcl pH 7.5, 1.6 mg/mL phosphatidylserine, 0.16 mg/mL diacylglycerol, and 50 mM MgCl2) were mixed with […] (3,000 Ci/mmol, 10 μCi/μL) and incubated at 30° C. for 10 min. To stop the reaction, 7.5 M guanidine hydrochloride were added and the phosphorylated peptide was separated on binding paper. The extent of phosphorylation was detected by measuring radioactivity retained on the paper.

Another test has as its system BALB/C mice. The experiment in a line: Azoxymethane-induced colon carcinogenesis, ACF analysis. Format: in vivo, mouse. As to conditions: 9 weeks. As for the experimental part: Approximately six weeks old mice were divided into 4 groups (5 mice/group). Mice in groups 3 and 4 were treated with azoxymethane in sterile saline, at a dose of 10 mg/kg body weight i.p. once a week, for 3 weeks. In group 4, mice were treated with AR inhibitor sorbinil (25 mg/kg body weight per day) for entire period after 1 week from the first azoxymethane injection. Mice in groups 1 and 2 received equal volumes of sterile saline and sorbinil, respectively. Similarly AR knock out mice also were treated with azoxymethane (10 mg/kg body weight i.p.) once a week for 3 weeks. After 9 weeks all mice were killed by CO2 euthanasia. The colons were removed, flushed with saline and opened from anus to cecum and fixed flat between two pieces of filter paper in 10% buffered formalin for 24 h. Colons were stained with 0.2% methylene blue dissolved in saline and the numbers of aberrant crypts foci (ACF) were counted under a microscope at 200× magnification.
BALB/C mice were injected with azoxymethane or saline and treated with and with out AR inhibitor, sorbinil as described in Example 2. At the early preneoplastic stage (9 weeks after first azoxymethane injection), mice were sacrificed and their colons were removed and analyzed microscopically for the presence of ACF. […]

Test [3] has as its system C57BL/6 mice. The experiment in a line: LPS-induced cytokines in serum and heart of mice. The class given is in vivo, mouse. As for the experimental part:
At the indicated times, TNF-a, IL-6, IL-12, interferon (IFN)-g, IL-1b, and monocyte chemo attractant protein (MCP)-1 levels in serum and in heart homogenates were determined (FIGS. 6A-6D). Prostaglandin E2 (PGE-2), cyclo-oxygenase 2 (COX-2), and nitrate levels were measured separately (FIG. 6E). Solid symbols, values from the mice injected with LPS; open symbols, values from the mice treated with LPS and sorbinil.
In sorbinil-treated mice, however, serum cytokine levels increased only 2-fold, began declining within 4 h, and returned to baseline levels within 12 h.

The test system of test [4] is Caco-2 cells. The experiment in a line: Cox-2 mRNA RT-PCR in Caco-2 cells. As to conditions: sorbinil 24 h, growth factor 3 h. Format: cell-based, human. How it is done: Total RNA was isolated from Caco-2 cells by using Rnaeasy micro isolation kit (Qiagen). Total RNA (1.5 μg) sample was reverse transcribed with Omniscript and Sensiscript reverse transcriptase one-Step RT PCR system with HotStarTaq DNA polymerase (Qiagen) at 55° C. for 30 min followed by PCR amplification. The oligonucleotide primer sequences were as follows: 5′-[…]-3′ (sense; SEQ ID NO: 4) and 5′-[…]-3′ (antisense; SEQ ID NO: 5) for Cox-2, and 5′-[…]-3′ (SEQ ID NO: 6) and 5′-[…]-3′ (SEQ ID NO: 7) for β-actin. PCR reaction was carried out in a GeneAmp 2700 thermocycler (Applied Biosystems, Foster City, Calif.) under the following conditions: initial denaturation at 95° C. for 15 min; 35 cycles of 94° C. 30 s, 62° C. 30 s, 72° C. 1 min, and then 72° C. 5 min for final extension (57). PCR products were electrophoresed in 2% Agarose-1™ TAE gels containing 0.5 μg/ml ethidium bromide.

Setting [5] is: sorbinil pretreatment, LPS 4 mg/kg.

Regarding “(S)-6-fluorospiro[chroman-4,4′-imidazolidine]-2,5′-dione [sorbinil]”, the “percent fractional shortening (FS %)” value in the test with C57BL/6 mice [1] (at 8 h after LPS, pretreated with sorbinil) is “recovered significantly”. In addition, the “general activity level of LPS-exposed mice” value with C57BL/6 mice [1] (within 24 h) is “normal grooming and other activities”. In addition, the “tumor metastasis to the liver (GFP fluorescence, pixel numbers)” value in the test on HT29-GFP cells is reported as “significant decrease”. The HT29 cells proliferation result in the test with HT29 cells is on record as “did not cause any effect”. Moreover, the “growth factor-induced increase in membrane-bound PKC activity” value with Caco-2 cells [2] is on record as “significantly prevented”. In addition, the “total PKC activity” value in the test with Caco-2 cells [2] (sorbinil by itself) is “did not alter”. In addition, in the test on BALB/C mice, the “azoxymethane-induced Cox-2 and iNOS expression in mice colons” value was “inhibits”. The “number of average ACF/colon” value with BALB/C mice (azoxymethane+sorbinil 25 mg/kg body weight per day) was 2.4±0.5. Further, in the test with C57BL/6 mice [3] (sorbinil 2 h after LPS exposure), the “maladaptive systemic inflammatory response in serum” value is on record as “blunted”. In the test with C57BL/6 mice [3] (setting [5]), the “time at which serum cytokine levels began declining” value is reported as not above 4 h and the “time at which serum cytokine levels returned to baseline” value is reported as not above 12 h. Further, the “increase of serum cytokine levels after LPS” value with C57BL/6 mice [3] (sorbinil pretreatment, LPS 4 mg/kg peritoneally) was determined as 2 fold. The “prevention of BFGF or PDGF-induced Cox-2 mRNA levels” value in the test with Caco-2 cells [4] is listed as 55-65%.
